For series [1] the following is noted: in vivo, cited from earlier work.
Series [2] has as its system Plasmodium falciparum 3D7. Briefly: Plasmodium falciparum susceptibility assay, first round (SYBR Green I). The class given is cell-based. As to conditions: 3D7, first round, 48-h incubation, strain susceptible to CQ, decreased susceptibility to MQ, read-out: IC50 (nM) Plasmodium falciparum 3D7 (converted).
The subject of series [3] is Plasmodium falciparum W2. The description is as above. As to conditions: W2, first round, 48-h incubation, strain resistant to CQ, sensitive to MQ, read-out: IC50 (nM) Plasmodium falciparum W2 (converted). Type of series: cell-based.
For series [4], the system named is P. falciparum 3D7. Kind of series: P. falciparum growth inhibition assay, second round (SYBR Green I, ICEstimator). As to conditions: Plasmodium falciparum, 3D7, 48 h. The class given is cell-based, Plasmodium falciparum.
The test system of series [5] is CHO-K1 cells. Kind of series: In vitro micronucleus assay, short-term exposure. As to conditions: short-term, with S9 mix, positive control 5 μg/mL. The procedure:
All the assays were conducted in duplicate. The CHO-K1 cells, suspended in McCoy's 5A medium, were transferred into Labteck wells at a concentration of 100,000 cells/mL, and incubated for 24 hours at 37° C. in CO2 (5%).
When the test was performed without metabolic activation, the test substances were added into cell cultures at concentrations previously defined.
When the assay was performed in the presence of metabolic activation, S9 mix metabolizing mixture was added to cell cultures at a concentration of 10%. Then the test substances were added to the cell cultures at concentrations previously defined.
After 3 hours of incubation at 37° C. in CO2 (5%), the culture medium was removed, the cells were rinsed with phosphate buffered saline (PBS), and then returned to culture in McCoy's 5A medium containing […] of cytochalasin B. After a 21-hour incubation period at 37° C., cells were rinsed with phosphate buffered saline (PBS), fixed with methanol and stained with 10% Giemsa for 20 minutes.
The analysis of results was performed under a microscope at ×1000 magnification. The antiproliferative activity of test substances was estimated by counting the number of binucleated cells relative to the number of mononucleated cells on a total of 500 cells for each dose (250 cells counted per well). The proliferation index (Cytokinesis Blocked Proliferative Index CBPI) was calculated using the following formula:
The cytostasis index (CI %), i.e. the percentage of cell replication inhibition, was calculated using the following formula: CI %−100−{100×(CBPItest material−1)/(CBPIsolvent control−1)}
The rates of micronuclei were evaluated for the presence of independent nuclear core entities in 1000 binucleated cells per well, which corresponds to 2000 cells examined by test substance dose. Micronuclei were identified as small nuclei well differentiated from cell nucleus, stained in the same manner and having a diameter less than one third of that of the cell nucleus.
Micronuclei rates obtained for different doses of test substances were compared to the negative control by a χ2 test. The assay was considered positive if: • A dose-response relationship was obtained between the rate of micronuclei and the doses tested, • At least one of these doses induced a statistically significant increase (P<0.05) in the number of micronucleated cells as compared to the negative control.

Regarding `CCCCN(CCCC)CC(O)c1cc(Cl)cc2c1-c1ccc(Cl)cc1/C2=C/c1ccc(Cl)cc1` (centres unmarked) [lumefantrine], the “human t1/2” value in series [1] was 3 to 4 days. `OC(c1cc(C(F)(F)F)nc2c(C(F)(F)F)cccc12)C1CCCCN1` (racemic) [Mefloquine, mefloquine]: in series [1], the “human t1/2” value is 2-4 weeks. Usually IC50 stands for the concentration that inhibits the measured activity by half. Consider `OC(c1cc(C(F)(F)F)nc2c(C(F)(F)F)cccc12)C1CCCCN1` (centres unmarked) [MQ, Mefloquine, reference compound], for which the figures for the IC50 in series [2], in series [3] and in series [4] were 79.7 ± 8.5 nM, 31.8 ± 1 nM and 32.3 ± 3.2 nM, respectively. On to `OC(c1cc(-c2ccc(C(F)(F)F)cc2)nc(C(F)(F)F)c1)C1CCCCN1` (racemic) [Enpiroline, reference compound], for which, in series [4], the IC50 was 21.6 ± 1.43 nM. In addition, in series [1], the mean half-life was 140 h.

Take `C[C@@H]1CC[C@H]2[C@@H](C)C(=O)O[C@@H]3O[C@@]4(C)CC[C@@H]1[C@]32OO4` [Artemisinin]: the “human t1/2” value in series [1] is 0.042 days. `O[C@H](CN[C@H](COCC1CC1)Cc1ccccc1)c1ccc(-c2ccc(C(F)(F)F)cc2)nc1C(F)(F)F` [Compound 30u, (S)-2-(((S)-1-(cyclopropylmethoxy)-3-phenylpropan-2-yl)amino)-1-(2-(trifluoromethyl)-6-(4-(trifluoromethyl)phenyl)pyridin-3-yl)ethan-1-ol]: the IC50 in series [4] was 165 ± 21.9 nM.

As for `c1ccc2c(c1)cc1ccc3cccc4ccc2c1c34` [Benzo-a-pyrene, benzo-a-pyrene, reference compound], in series [5], the “BI (binucleated cells)” value was 475, the “MNC1 (micronucleated cell rate)” value is on record as 28 ‰, the “MNC2 (micronucleated cell rate)” value is 25 ‰ and the “MNC-M (mean of micronucleated cell rates)” value is given as 26.5 ± 2.12 ‰. The “MONO (mononucleated cells)” value in series [5] came out at 25. Take `O[C@@H](CN[C@H](COCC1CC1)Cc1ccccc1)c1ccc(-c2ccc(C(F)(F)F)cc2)nc1C(F)(F)F` [Compound 30v, (R)-2-(((S)-1-(cyclopropylmethoxy)-3-phenylpropan-2-yl)amino)-1-(2-(trifluoromethyl)-6-(4-(trifluoromethyl)phenyl)pyridin-3-yl)ethan-1-ol]: the IC50 in series [4] is 896 nM. As to `O[C@@H](CNCCCN1CCN(C(c2ccccc2)c2ccccc2)CC1)c1cc(-c2ccc(C(F)(F)F)cc2)nc(C(F)(F)F)c1` [Compound 1n, (R)-2-((3-(4-benzhydrylpiperazin-1-yl)propyl)amino)-1-(2-(trifluoromethyl)-6-(4-(trifluoromethyl)phenyl)pyridin-4-yl)ethanol], the values for the IC50 in series [3] and in series [4] were 86.9 nM and less than 50 nM, respectively.

The values above are taken from patent publication US11220482B2, “Aminopyridinemethanol compounds and their use” (UNIVERSITE AMIENS PICARDIE JULES VERNE, priority 2017, dated 2022).
